According to publication PMC8615111, “Phenolic Thiazoles with Antioxidant and Antiradical Activity. Synthesis, In Vitro Evaluation, Toxicity, Electrochemical Behavior, Quantum Studies and Antimicrobial Screening” (Antioxidants, 2021):
In brackets after ≈: the same amount, converted by molar mass. Read-outs that look alike come from different tables or passages of the source.

Columns and labels:
[1] = ABTS˙^+ radical scavenging assay; format: biochemical
Protocol: The assay was based on the decolorization of green (2,2′-azinobis-(3-ethylbenzothiazoline-6-sulfonic acid) ABTS˙^+ to ABTS, on the principle reported by Re et al. and was carried out according to our previously published research.
Later, 1950 µL of ABTS˙^+ reagent was added to all cuvettes and they were shaken for well over 10 min in the dark at room temperature. The absorbance of the resulted solutions found in cuvettes was determined spectrophotometrically at λ = 734 nm. The ABTS scavenging activity of the compounds was calculated using the following Equation (1):(1) ABTS scavenging (%)=control absorbance−sample absorbance/control absorbance×100

[2] = DPPH˙ radical scavenging assay; format: biochemical; details: for IC50: DPPH˙ scavenging
Protocol: The 2,2-diphenyl-1-picrylhydrazyl (DPPH˙) radical scavenging assay is based on the transfer of one hydrogen from the analyzed compound to the violet radical DPPH˙. This will convert it to a yellow compound, the change in absorbance being proportional to the amount of DPPH˙ neutralized, according to Brand-Williams et al..
The preparation of the DPPH˙ reagent was previously reported by our group. […] Over the previous quantities, DMSO was added until a total volume of 50 µL was obtained in all cuvettes, and 1950 µL of DPPH˙ solution was added to all cuvettes; then, they were shaken for well over 10 min in the dark at room temperature. The absorbances of the solutions were measured at λ = 517 nm. The DPPH˙ radical scavenging activity of evaluated compounds was calculated using Equation (2):(2) DPPH scavenging (%)=control absorbance−sample absorbance/control absorbance×100

[3] = TEMPO scavenging by differential pulse voltammetry; details: 2 mM TEMPO, one hour incubation, 0.1 M HClO4, DPV
Protocol: The antioxidant properties were evaluated in terms of their activity against some free radicals, and other compounds reported in the literature, relevant for this purpose, such as: • ferric ions (Fe^3+)—used to test the reduction of the antioxidant character of the compounds; • DPPH˙ free radical– used to test the scavenging effect of the compounds on this radical; • hydrogen peroxide (H2O2)—used to test the scavenging effect of the synthesized molecules on this compound; • 2,2,6,6-tetramethylpiperidinyl-1-oxy (TEMPO)—used to test the scavenging effect of the synthesized molecules on this compound.
TEMPO (2,2,6,6-tetramethylpiperidine-N-oxyl) is a stable organic nitroxide radical that has been reported to scavenge carbon-centered radicals.
Differential pulse voltammetry (DPV) was then applied in order to evaluate the antioxidant effectiveness of the novel compounds through their ability to scavenge the free radical species.

HaCaT cells = assay: Cytotoxicity determination, MTT method; format: cell-based; details: Homo sapiens, 24 h
Protocol: To determine the cytotoxic action of the obtained compounds 5[…], and 8a-b, a normal human keratinocytes cell line was used (HaCaT keratinocytes, CLS-300493, Eppelheim, Germany). HaCaT cells were cultured in Dulbecco's Modified Eagle Media (DMEM) supplemented with 1% L-glutamine, 1% penicillin-streptomycin, and 5% fetal bovine serum. At 80% confluence, the cells were transferred to 96 well plates at a confluence of 12×10^3 cells/well and left to attach for 24 h at 37°C and 5% CO2 in a humidified atmosphere. […] After 24 h, the culture media was replaced with 100 μL of MTT solution at a final concentration of 5 μg/mL/well and left to interact with the cells for 2 h in the incubator. After this, the MTT solution was replaced with 100 μL of isopropanol, left to dissolve the formazan crystals for 5 min, and read at 550 and 630 nm using a BioTek Epoch plate reader (BioTek Instruments, Winooski, VT, USA) and Gen5 software (version 1.09).

E. coli ATCC 25922 = assay: Antimicrobial activity, modified microdilution; format: cell-based; details: Escherichia coli, ATCC25922
Protocol: (§1) For evaluating the antimicrobial activity of the compounds, […] aerobic microbial strains were used: S. aureus ATCC 25923, S. pyogenes ATCC 19615, P. aeruginosa ATCC 27853, S. enterica ISM 83/37, S. typhimurium ATCC 14028, E. coli ATCC 8739, E. coli ATCC 25922, and C. albicans ATCC 102310 obtained from Food Biotechnology Laboratory, Life Sciences Institute, University of Agricultural Sciences, and Veterinary Medicine Cluj Napoca, where the experiment was performed. The antimicrobial activity of the compounds was determined using a modified microdilution technique, and the followed protocol was previously reported.
(§2) The antimicrobial activity of the final compounds, against seven aerobic microbial strains (S. aureus ATCC 25923, S. pyogenes ATCC 19615, P. aeruginosa ATCC 27853, S. enterica ISM 83/37, S. typhimurium ATCC 14028, E. coli ATCC 8739, E. coli ATCC 25922), and a fungal strain (C. albicans ATCC 102310), was determined using a modified microdilution technique.
(§3) The results of the antimicrobial activity evaluation of the compounds, in comparison to norfloxacin and chloramphenicol used as standard antibiotics and fluconazole used as reference antifungal, are depicted in Table 10.

E. coli ATCC 8739 = assay: Antimicrobial activity, modified microdilution; format: cell-based; details: Escherichia coli, ATCC8739
Protocol: as §1, §2, §3

P. aeruginosa ATCC 27853 = assay: Antimicrobial activity, modified microdilution; format: cell-based; details: Pseudomonas aeruginosa, ATCC27853
Protocol: as §1, §2, §3

S. aureus ATCC 25923 = assay: Antimicrobial activity, modified microdilution; format: cell-based; details: Staphylococcus aureus, ATCC25923
Protocol: as §1, §2, §3

S. enterica ISM 83/37 = assay: Antimicrobial activity, modified microdilution; format: cell-based; details: Salmonella enterica, ISM83/37
Protocol: as §1, §2, §3

S. pyogenes ATCC 19615 = assay: Antimicrobial activity, modified microdilution; format: cell-based; details: Streptococcus pyogenes, ATCC19615
Protocol: as §1, §2, §3

[4] = tested on: S. typhimurium ATCC 14028; assay: Antimicrobial activity, modified microdilution; format: cell-based; details: Salmonella enterica
Protocol: as §1, §2, §3

[5] = NO˙ radical scavenging assay (Griess reaction); format: biochemical; details: 100 µL of test solution 1 mg/mL in DMSO, 150 min, pH 7.4
Protocol: Scavenging of the NO˙ radical was performed according to some adapted protocols reported in the literature, based on the nitroprusside decomposition at physiological pH and colorimetric quantification of the resulted products using the Griess reaction.
Over 200 µL of 10 mM sodium nitroprusside, 100 µL of test solutions (1 mg/mL in DMSO), and 400 µL phosphate-buffered saline (PBS, pH = 7.4) were added. The mixture was then incubated at room temperature for 150 min on a rotating shaker (GFL Gesellschaft für Labortechnik, Burgwedel, Germany). After that, 1 mL of sulfanilic acid 0.33% in 20% acetic acid was added and after 5 min, 1 mL of naphthylethylenediamine […] 0.1% was added to all test tubes. After 30 min, the absorbance of the sample, given by the chromophore (azo dye) formed during the diazotization of nitrite ions resulting from decomposition of sodium nitroprusside with sulfanilic acid and coupled with naphthylethylenediamine, was measured at 546 nm. The NO˙ radical scavenging activity of the tested compounds was calculated using Equation (3):(3) NO˙ scavenging (%)=control absorbance−sample absorbance/control absorbance×100

Fe^2+ chelation assay = format: biochemical
Protocol: The protocol used for assessing Fe^2+ chelating capacity of the compounds was adapted from a report of Benzie and Strain and previously reported by our group. The iron(II) chelation ability of compounds was calculated using Equation (7):(7) iron chelation (%)=control absorbance−sample absorbance/control absorbance×100
The chelating potential for the ferrous ions of the new compounds was determined, based on their competition for Fe^2+ with ferrozine.

Cu^2+ chelation assay = format: biochemical
C. albicans ATCC 102310 = assay: Antifungal activity, modified microdilution; format: cell-based; details: Candida albicans, ATCC102310
Protocol: as §1, §2, §3

O=C1O[C@H]([C@@H](O)CO)C(O)=C1O [Ascorbic acid, reference compound]
% of ABTS˙^+ Scavenged ([1]; 0.5 µg/mL): 9.56%
% of ABTS˙^+ Scavenged ([1]; 0.75 µg/mL): 14.32%
% of ABTS˙^+ Scavenged ([1]; 1 µg/mL): 20.61%
% of ABTS˙^+ Scavenged ([1]; 1.5 µg/mL): 38.24%
% of ABTS˙^+ Scavenged ([1]; 2.5 µg/mL): 64.58%
IC50 ([1]; ABTS˙^+ scavenging): 1.97 µg/mL (≈ 11.2 µM)
% of DPPH˙ Scavenged ([2]; 1 µg/mL): 19.39%
% of DPPH˙ Scavenged ([2]; 1.5 µg/mL): 29.10%
% of DPPH˙ Scavenged ([2]; 2 µg/mL): 38.27%
% of DPPH˙ Scavenged ([2]; 3 µg/mL): 53.42%
% of DPPH˙ Scavenged ([2]; 5 µg/mL): 80.28%
IC50 [2]: 2.89 µg/mL (≈ 16.4 µM)
oxidation signal for TEMPO after incubation with the compound [3]: decreases
IC50 (HaCaT cells; HaCaT): 22.8 µg/mL
IC50 (HaCaT cells; HaCaT cells, MTT, read-out: IC50): 129 µM

O=C(N[C@H](CO)[C@H](O)c1ccc([N+](=O)[O-])cc1)C(Cl)Cl [Chloramphenicol, reference compound]
MIC (E. coli ATCC 25922): 3.9 µg/mL (≈ 12.1 µM)
MIC (E. coli ATCC 8739): 7.8 µg/mL (≈ 24.1 µM)
MIC (P. aeruginosa ATCC 27853): 0.48 µg/mL (≈ 1.49 µM)
MIC (S. aureus ATCC 25923): 7.8 µg/mL (≈ 24.1 µM)
MIC (S. enterica ISM 83/37): 3.9 µg/mL (≈ 12.1 µM)
MIC (S. pyogenes ATCC 19615): 3.9 µg/mL (≈ 12.1 µM)
MIC [4]: < 0.48 µg/mL

O=C(O)c1cc(O)ccc1O [Gentisic acid, reference compound]
% of NO˙ Scavenged [5]: 47.33%

Cc1c(C)c2c(c(C)c1O)CCC(C)(C(=O)O)O2 (centres unmarked) [Trolox, reference compound]
% of DPPH˙ Scavenged ([2]; 1 µg/mL): 10.83%
% of DPPH˙ Scavenged ([2]; 1.5 µg/mL): 17.10%
% of DPPH˙ Scavenged ([2]; 2 µg/mL): 20.56%
% of DPPH˙ Scavenged ([2]; 3 µg/mL): 31.91%
% of DPPH˙ Scavenged ([2]; 5 µg/mL): 53.67%
IC50 [2]: 4.68 µg/mL (≈ 18.7 µM)
% of NO˙ Scavenged [5]: 32.12%

disodium salt of ethylenediaminetetraacetic acid [EDTA-Na2, reference compound]
Chelation Capacity (%), ferrous ions (Fe^2+ chelation assay; 50 µg/mL): 20.86%
Chelation Capacity (%), ferrous ions (Fe^2+ chelation assay; 100 µg/mL): 57.32%
Chelation Capacity (%), ferrous ions (Fe^2+ chelation assay; 150 µg/mL): >95.00%
Chelation Capacity (%), ferrous ions (Fe^2+ chelation assay; 200 µg/mL): >95.00%
Chelation Capacity (%), cupric ions (Cu^2+ chelation assay; 3.36 µg/mL): 12.36%
Chelation Capacity (%), cupric ions (Cu^2+ chelation assay; 6.72 µg/mL): 19.61%
Chelation Capacity (%), cupric ions (Cu^2+ chelation assay; 10.08 µg/mL): 29.97%
Chelation Capacity (%), cupric ions (Cu^2+ chelation assay; 13.44 µg/mL): 39.18%
Chelation Capacity (%), cupric ions (Cu^2+ chelation assay; 16.80 µg/mL): 45.86%

CCn1cc(C(=O)O)c(=O)c2cc(F)c(N3CCNCC3)cc21 [Norfloxacin, reference compound]
MIC (E. coli ATCC 25922): 7.8 µg/mL (≈ 24.4 µM)
MIC (E. coli ATCC 8739): < 0.48 µg/mL
MIC (P. aeruginosa ATCC 27853): 7.8 µg/mL (≈ 24.4 µM)
MIC (S. aureus ATCC 25923): 0.48 µg/mL (≈ 1.5 µM)
MIC (S. enterica ISM 83/37): < 0.48 µg/mL
MIC (S. pyogenes ATCC 19615): < 0.48 µg/mL
MIC [4]: < 0.48 µg/mL

OC(Cn1cncn1)(Cn1cncn1)c1ccc(F)cc1F [Fluconazole, reference compound]
MIC (C. albicans ATCC 102310): 31.2 µg/mL (≈ 102 µM)
